How the values were obtained:
platelets [1] = experiment: Collagen-induced platelet aggregation by light transmittance aggregometry (LTA) in PRP (Example 1); format: cell-based, human
Procedure: (§1) Blood from healthy individuals (n=6-7) was obtained by venipuncture and anticoagulated with FXa inhibitor. Platelet rich plasma (PRP) was obtained, and LTA was performed by standard procedures, initiating platelet aggregation with U-46619 (10 μM) or collagen (4 μg/ml).
LTA was performed on PRP samples using collagen (4 micrograms/ml) to induce platelet aggregation.

[2] = hundreds of randomized clinical trials; BMJ 324:71-86 (2002); cited from earlier work
platelets [3] = experiment: Collagen-induced platelet aggregation LTA, healthy volunteers and AERD patients (Example 2); format: cell-based, human; conditions: for anti-aggregatory activity in collagen-induced platelet aggregation assay: FIG. 5
Procedure: (§2) Light transmittance aggregometry (LTA) assays were performed by standard procedures, initiating platelet aggregation with collagen or arachidonic acid.
(§3) Assays were performed pre- (+/−ifetroban, spiked in vitro) and post-aspirin desensitization.

platelets [4] = experiment: Real time perfusion chamber assay, blood perfused through collagen-coated capillaries (Example 1); format: cell-based, human; conditions: non-aspirinated blood, ifetroban added in vitro; aspirin 325 mg per day for 2 weeks; FIG. 3
platelets [5] = experiment: Arachidonic acid-induced platelet aggregation LTA (Example 2); format: cell-based, human; conditions: all three tested doses (1 μM, 350 nM, 100 nM); healthy volunteers and AERD patients; FIGS. 7A and 7B
Procedure: as §2, §3

platelets [6] = experiment: U-46619-induced platelet aggregation by light transmittance aggregometry (LTA) in PRP; format: cell-based, human
Procedure: as §1

platelets [7] = experiment: Real time perfusion chamber assay (RTTP), healthy volunteers and AERD patients (Example 2); format: cell-based, human; conditions: 100 nM or 350 nM spiked in vitro
Procedure: Real time perfusion chamber assays (RTTP) were performed using blood anticoagulated with Fxa inhibitor (10 uM 034) and perfused through collagen-coated capillaries (1100/sec). Thrombus formation on the collagen surface was monitored in real time using fluorescence microscopy to detect fluorescently labeled (R6G) platelets.
as §3

Row | SMILES | reduction of the extent of collagen-induced platelet aggregation v. baseline (mean+sem) (platelets [1]; twenty healthy individuals, aspirin 325 mg/day for two weeks, collagen 4 micrograms/ml, PRP) | reduction in adverse events [2] | anti-aggregatory activity in collagen-induced platelet aggregation assay (platelets [3]; AERD patients) | concentration reproducing aspirin effects on collagen-induced platelet aggregation and thrombosis (platelets [3]; AERD patients, FIG. 5B) [nM] | concentration showing statistically significant inhibition of collagen-induced platelet aggregation (platelets [3]; AERD patients, FIG. 5B) [nM] | inhibition of platelet aggregation compared with aspirin (platelets [3]; healthy volunteers, 100 nM ifetroban) | anti-aggregatory activity in collagen-induced platelet aggregation assay (platelets [3]; healthy volunteers) | concentration showing statistically significant inhibition of collagen-induced platelet aggregation (platelets [3]; normal volunteers (P=0.0281), FIG. 5A) [nM] | concentration reproducing aspirin effects on collagen-induced platelet aggregation and thrombosis (platelets [3]; normal volunteers, FIG. 5A) [nM] | concentration in collagen-induced assay relative to that predicted by U-46619-induced assay (platelets [1]; 350 nM v. 30 nM) | concentration for maximum inhibition of collagen-induced platelet aggregation (platelets [1]; collagen 4 μg/ml, non-aspirinated PRP, ifetroban added in vitro, FIG. 2) | amount required to inhibit collagen-induced versus U-46619-induced platelet aggregation (platelets [1]; collagen versus U-46619) | concentration providing equivalent or superior inhibitory activity on thrombosis as aspirin (platelets [4]) [nM] | effect on arachidonic acid-induced platelet aggregation (platelets [5]) | concentration that fully inhibited U-46619-induced platelet aggregation (platelets [6]; U-46619 10 μM, PRP anticoagulated with FXa inhibitor, ifetroban added in vitro, FIG. 2) [nM] | concentration predicted by U-46619-induced platelet aggregation assays (platelets [6]; U-46619-induced platelet aggregation) [nM] | antithrombotic activity in perfusion chamber assay (platelets [7]; AERD patients, FIG. 4B) | antithrombotic activity in perfusion chamber assay (platelets [7]; healthy volunteers, FIG. 4A)
1 | CC(=O)Oc1ccccc1C(=O)O [aspirin] | 39+/−6.0% | 20-25% | – | – | – | – | – | – | – | – | – | – | – | – | – | – | – | –
2 | CCCCCNC(=O)c1coc([C@H]2[C@@H](Cc3ccccc3CCC(=O)[O-])[C@@H]3CC[C@H]2O3)n1.[Na+] [ifetroban, [1S-(1α,2α,3α,4α)]-2-[[3-[4-[(pentylamino)carbonyl]-2-oxazolyl]-7-oxabicyclo[2.2.1]hept-2-yl]methyl]benzenepropanoic acid] | – | – | significant anti-aggregatory activity | > 100 | > 100 | significantly lower inhibition of platelet aggregation than aspirin | significant anti-aggregatory activity | > 100 | > 100 | approximately 10 times | greater than or equal to 350 nM | approximately 10 fold | ≥ 300 | fully blocked | > 30 | 30 | significant antithrombotic activity | significant antithrombotic activity

— US20090012136A1, “UNIT DOSE FORMULATIONS AND METHODS OF TREATING AND PREVENTING THROMBOSIS WITH THROMBOXANE RECEPTOR ANTAGONISTS” (PORTOLA PHARMACEUTICALS, INC., priority 2007, published 2009)
